# Experiment: Case report: treatment of cocaine craving using pramipexole (patient)
# Type: in vivo, human
# Details: one patient; lamotrigine up to 200 mg, before pramipexole was added
structure (smiles),measurement,value
Nc1nnc(-c2cccc(Cl)c2Cl)c(N)n1 [lamotrigine],mood (depression),modest improvement
